Test results taken from ChEMBL document CHEMBL4665653, “VU6005806/AZN-00016130, an advanced M positive allosteric modulator (PAM) profiled as a potential preclinical development candidate” (Bioorg Med Chem Lett, 2019).
Activity calls are given as the source filed them. The calls are words filed in the database; no cut-off is given here.

What was measured:
[1] = biological target: T1, Muscarinic acetylcholine receptor M5 (Homo sapiens) (UniProt P08912); assay: Positive allosteric modulation of human M5 receptor
T1 sequence (whole entry): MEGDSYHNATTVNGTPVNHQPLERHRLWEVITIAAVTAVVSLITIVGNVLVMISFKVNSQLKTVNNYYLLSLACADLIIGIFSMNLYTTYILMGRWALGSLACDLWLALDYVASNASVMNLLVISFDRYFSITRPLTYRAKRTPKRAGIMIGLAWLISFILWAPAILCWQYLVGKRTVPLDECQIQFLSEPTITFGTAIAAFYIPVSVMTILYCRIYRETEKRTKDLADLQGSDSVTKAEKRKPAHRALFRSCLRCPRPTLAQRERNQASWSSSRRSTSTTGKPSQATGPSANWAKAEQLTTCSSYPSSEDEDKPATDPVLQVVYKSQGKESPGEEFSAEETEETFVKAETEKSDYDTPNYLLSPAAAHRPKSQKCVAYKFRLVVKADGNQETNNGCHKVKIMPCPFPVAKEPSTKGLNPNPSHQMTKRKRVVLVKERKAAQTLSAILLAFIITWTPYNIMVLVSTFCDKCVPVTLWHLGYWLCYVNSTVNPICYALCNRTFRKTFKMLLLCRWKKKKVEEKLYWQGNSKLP

P-gp = assay: Substrate activity at human P-gp expressed in MDCK-MDR1 cells assessed as efflux ratio; type: ADME, cell-based
[2] = Hepatic clearance in rat; type: ADME; settings: in vivo
[3] = biological target: T2, Muscarinic acetylcholine receptor M4 (Homo sapiens) (UniProt P08173); assay: Positive allosteric modulation of human M4 receptor/Gqi5 in presence of EC20 acetylcholine by calcium mobilization assay relative to acetylcholine; type: functional; settings: filed as positive allosteric modulator
T2 sequence (whole entry): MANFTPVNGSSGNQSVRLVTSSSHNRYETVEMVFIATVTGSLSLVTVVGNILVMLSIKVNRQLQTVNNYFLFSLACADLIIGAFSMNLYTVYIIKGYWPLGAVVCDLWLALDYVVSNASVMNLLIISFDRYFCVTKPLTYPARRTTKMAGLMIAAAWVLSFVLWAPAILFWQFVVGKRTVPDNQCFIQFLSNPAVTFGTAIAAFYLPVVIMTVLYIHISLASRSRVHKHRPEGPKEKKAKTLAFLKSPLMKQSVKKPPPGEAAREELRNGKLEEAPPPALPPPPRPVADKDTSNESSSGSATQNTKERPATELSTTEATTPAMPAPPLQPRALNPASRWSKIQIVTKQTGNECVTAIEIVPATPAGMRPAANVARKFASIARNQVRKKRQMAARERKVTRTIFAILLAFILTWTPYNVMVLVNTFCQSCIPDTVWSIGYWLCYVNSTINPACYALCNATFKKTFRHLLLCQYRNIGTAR

[4] = biological target: T3, Muscarinic acetylcholine receptor M4 (Homo sapiens, UniProt P08173); assay: Positive allosteric modulation of human M4 receptor/Gqi5 in presence of EC20 acetylcholine by calcium mobilization assay; type: functional
T3 sequence (P08173 whole entry): T2 sequence (whole entry)

[5] = biological target: T4, Muscarinic acetylcholine receptor M2 (Homo sapiens, UniProt P08172); assay: Positive allosteric modulation of human M2 receptor/Gqi5 in presence of EC20 acetylcholine by calcium mobilization assay
T4 sequence (P08172 whole entry): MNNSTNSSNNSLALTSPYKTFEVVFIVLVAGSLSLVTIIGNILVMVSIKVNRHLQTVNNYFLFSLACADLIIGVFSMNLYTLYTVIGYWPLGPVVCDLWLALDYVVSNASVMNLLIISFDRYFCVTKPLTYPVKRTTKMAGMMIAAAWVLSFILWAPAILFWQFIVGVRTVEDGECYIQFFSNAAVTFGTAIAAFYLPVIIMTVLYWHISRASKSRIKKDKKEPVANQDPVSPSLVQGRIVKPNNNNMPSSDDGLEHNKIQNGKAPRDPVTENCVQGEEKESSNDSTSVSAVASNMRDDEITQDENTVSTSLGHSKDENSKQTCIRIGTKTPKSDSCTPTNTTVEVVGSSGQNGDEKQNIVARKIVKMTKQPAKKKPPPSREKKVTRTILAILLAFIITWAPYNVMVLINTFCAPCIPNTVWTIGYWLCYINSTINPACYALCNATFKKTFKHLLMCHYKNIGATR

[6] = Unbound brain-to-plasma concentration ratio in Sprague-Dawley rat at 0.1 to 0.2 mg/kg, iv measured after 0.25 hrs; type: ADME, organism-based; settings: dose 0.1-0.2 mg/kg, read-out: K(p,uu,brain)
[7] = Fraction unbound in rat plasma; type: ADME, cell-free
[8] = Fraction unbound in human plasma; type: ADME, cell-free
[9] = Fraction unbound in rat brain; type: ADME, tissue-based
[10] = Hepatic clearance in human; type: ADME
[11] = biological target: Muscarinic acetylcholine receptor M3 (Homo sapiens, UniProt P20309); assay: Positive allosteric modulation of human M3 receptor
Muscarinic acetylcholine receptor M3, sequence (P20309 whole entry, looked up): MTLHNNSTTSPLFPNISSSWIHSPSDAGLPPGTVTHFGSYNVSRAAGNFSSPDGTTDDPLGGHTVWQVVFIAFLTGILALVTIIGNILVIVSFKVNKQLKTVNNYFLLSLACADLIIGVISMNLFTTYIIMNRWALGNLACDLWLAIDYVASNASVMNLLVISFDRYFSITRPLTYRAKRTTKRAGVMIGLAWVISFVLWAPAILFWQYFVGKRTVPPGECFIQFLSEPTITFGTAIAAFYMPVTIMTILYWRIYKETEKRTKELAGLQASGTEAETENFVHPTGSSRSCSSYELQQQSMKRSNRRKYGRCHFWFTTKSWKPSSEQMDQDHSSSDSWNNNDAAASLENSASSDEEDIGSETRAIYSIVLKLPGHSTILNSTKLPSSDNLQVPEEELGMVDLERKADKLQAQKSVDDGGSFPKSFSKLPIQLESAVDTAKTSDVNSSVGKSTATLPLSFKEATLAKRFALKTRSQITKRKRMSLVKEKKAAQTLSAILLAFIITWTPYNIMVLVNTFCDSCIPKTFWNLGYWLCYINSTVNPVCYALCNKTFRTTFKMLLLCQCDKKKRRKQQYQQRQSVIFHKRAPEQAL

[12] = biological target: T5, Muscarinic acetylcholine receptor M1 (Homo sapiens) (UniProt P11229); assay: Positive allosteric modulation of human M1 receptor
T5 sequence (whole entry): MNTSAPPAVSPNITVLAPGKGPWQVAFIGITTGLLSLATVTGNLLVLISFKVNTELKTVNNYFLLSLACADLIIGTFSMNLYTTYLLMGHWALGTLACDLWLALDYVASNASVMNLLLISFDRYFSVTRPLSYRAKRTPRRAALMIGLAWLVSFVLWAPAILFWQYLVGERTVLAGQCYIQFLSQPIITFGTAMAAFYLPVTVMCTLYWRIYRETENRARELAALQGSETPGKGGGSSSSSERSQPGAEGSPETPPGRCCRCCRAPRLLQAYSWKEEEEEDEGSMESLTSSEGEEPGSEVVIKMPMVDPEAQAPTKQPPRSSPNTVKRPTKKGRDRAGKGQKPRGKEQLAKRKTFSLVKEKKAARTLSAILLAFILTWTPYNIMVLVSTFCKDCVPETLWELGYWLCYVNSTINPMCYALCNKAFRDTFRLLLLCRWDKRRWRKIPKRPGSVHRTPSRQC

[13] = Brain to plasma permeability coefficient, Kp in Sprague-Dawley rat at 0.1 to 0.2 mg/kg, iv measured after 0.25 hrs; type: ADME, organism-based; settings: dose 0.1-0.2 mg/kg
[14] = biological target: T4, Muscarinic acetylcholine receptor M2; assay: Positive allosteric modulation of human M2 receptor/Gqi5 in presence of EC20 acetylcholine by calcium mobilization assay relative to acetylcholine; settings: read-out: %max

Row | Activity [1] | efflux ratio (P-gp) | CLH [2] [mL/min/kg] | %max [3] [%] | EC50 [4] [nM] | EC50 [5] [nM] | Kp uu at 0.25 h [6] | fraction unbound [7] | fraction unbound [8] | fraction unbound [9] | CLH [10] [mL/min/kg] | Activity [11] | Activity [12] | Kp at 0.25 h [13] | Emax [14] [%] | Structure (SMILES)
1 | inactive | 3 | 18.8 | 49 | 150 | > 30000 | 0.88 | 0.017 | 0.02 | 0.062 | 10.1 | inactive | inactive | 0.29 |  | Cc1c(C(F)F)nnc2sc(C(=O)NC3CN(c4ncc(C(F)(F)F)cn4)C3)c(N)c12
2 | inactive | 4 | 10.6 | 76 | 90 | 1160 | 0.18 | 0.028 | 0.048 | 0.41 | 4.39 | inactive | inactive | 0.12 | 30 | Cc1nnc2sc(C(=O)NC3CN(c4ncc(C(F)(F)F)cn4)C3)c(N)c2c1C
